Each compound was assayed against T1, Cbl-b (Homo sapiens, UniProt Q13191) (assay: Cbl-b probe displacement HTRF binding assay). Settings: 0.4 nM Cbl-b, 150 nM BODIPY probe.
T1 construct: biotin (biotinylated protein)
Procedure, shortened: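 Compound competes with BODIPY probe (150 nM) for biotinylated Cbl-b (0.4 nM) in HEPES/NaCl/Triton/TCEP/BSA buffer; 60 min preincubation, 15 min with probe, room temperature. Tb-streptavidin HTRF read; % displacement vs DMSO and no-protein controls, IC50 from four-parameter fit.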

T1 sequence (Q13191 whole entry, species assumed): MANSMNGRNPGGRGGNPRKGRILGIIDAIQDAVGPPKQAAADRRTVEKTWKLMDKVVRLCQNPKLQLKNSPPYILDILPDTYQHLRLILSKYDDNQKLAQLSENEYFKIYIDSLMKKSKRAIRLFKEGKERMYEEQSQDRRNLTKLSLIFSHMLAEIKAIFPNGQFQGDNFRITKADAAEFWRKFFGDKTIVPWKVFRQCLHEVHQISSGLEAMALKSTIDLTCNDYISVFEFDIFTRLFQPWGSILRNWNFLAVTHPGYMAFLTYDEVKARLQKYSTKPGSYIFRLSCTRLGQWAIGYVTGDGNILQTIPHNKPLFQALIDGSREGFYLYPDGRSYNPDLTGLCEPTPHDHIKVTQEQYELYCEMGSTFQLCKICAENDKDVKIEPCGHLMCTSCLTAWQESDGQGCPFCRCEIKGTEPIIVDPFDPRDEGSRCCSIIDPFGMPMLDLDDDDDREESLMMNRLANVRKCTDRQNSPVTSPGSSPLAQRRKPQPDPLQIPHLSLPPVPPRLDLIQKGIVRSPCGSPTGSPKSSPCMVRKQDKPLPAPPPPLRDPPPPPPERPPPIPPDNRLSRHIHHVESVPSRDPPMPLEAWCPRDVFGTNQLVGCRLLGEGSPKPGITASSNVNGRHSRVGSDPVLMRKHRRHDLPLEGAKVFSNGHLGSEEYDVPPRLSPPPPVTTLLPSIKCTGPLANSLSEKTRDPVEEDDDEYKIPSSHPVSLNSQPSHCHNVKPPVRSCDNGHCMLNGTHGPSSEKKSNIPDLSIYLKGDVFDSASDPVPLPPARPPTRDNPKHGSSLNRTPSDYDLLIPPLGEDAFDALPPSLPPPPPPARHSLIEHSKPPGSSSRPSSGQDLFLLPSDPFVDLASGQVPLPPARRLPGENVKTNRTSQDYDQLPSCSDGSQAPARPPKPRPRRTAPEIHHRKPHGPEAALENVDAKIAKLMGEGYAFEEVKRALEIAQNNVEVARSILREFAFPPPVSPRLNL

Structure (SMILES)	IC50 [nM]
CCOc1cc(-c2c(F)cc(Cl)cc2C(=O)N2CC(F)(F)C2)cc(NC(=O)c2cc(CNC[C@H](C)OC)cn(C3CC3)c2=O)n1 [Example 199]	< 100
CC(C)Nc1cc(-c2c(F)cc(Cl)cc2C(=O)N2CC(F)(F)C2)cc(NC(=O)c2cc(CN[C@@H](C)C3CCC3)cn(C3CC3)c2=O)n1 [Example 200]	< 100
CC(C)CNCc1cc(C(=O)Nc2cc(-c3c(F)cc(Cl)cc3C(=O)N3CC(F)(F)C3)cc(NC(C)C)n2)c(=O)n(C2CC2)c1 [Example 201]	< 100
CCOc1cc(-c2ccc(C#N)cc2C(=O)N2CC(F)(F)C2)cc(NC(=O)c2cc(CNCC(C)C)cn(C3CC3)c2=O)n1 [Example 202]	< 100
CCOc1cc(-c2c(F)cc(Cl)cc2C(=O)N2CC(F)(F)C2)cc(NC(=O)c2cc(CN[C@@H](C)[C@H](C)OC)cn(C3CC3)c2=O)n1 [Example 203]	< 100
CC(C)Nc1cc(-c2c(F)cc(Cl)cc2C(=O)N2CC(F)(F)C2)cc(NC(=O)c2cc(CN[C@@H](C)C3CC3)cn(C3CC3)c2=O)n1 [Example 204]	< 100
CO[C@@H](C)[C@H](C)NCc1cc(C(=O)Nc2cc(-c3ccc(OC(F)F)cc3C(=O)N3CC(F)(F)C3)cc(OC(C)C)n2)c(=O)n(C2CC2)c1 [Example 205]	< 100
CCOc1cc(-c2ccc(C#N)cc2C(=O)N2CC(F)(F)C2)cc(NC(=O)c2cc(CNC[C@H](C)OC)cn(C3CC3)c2=O)n1 [Example 206]	< 100
CCOc1cc(-c2c(F)cc(Cl)cc2C(=O)N2CC(F)(F)C2)cc(NC(=O)c2cc(CN[C@@H](C)C3CCC3)cn(C3CC3)c2=O)n1 [Example 207]	< 100
CC(C)Nc1cc(-c2c(F)cc(Cl)cc2C(=O)N2CC(F)(F)C2)cc(NC(=O)c2cc(CNC[C@@H]3CCCO3)cn(C3CC3)c2=O)n1 [Example 208]	< 100
CC(C)Oc1cc(-c2ccc(OC(F)F)cc2C(=O)N2CC(F)(F)C2)cc(NC(=O)c2cc(CNC[C@@H]3CCCO3)cn(C3CC3)c2=O)n1 [Example 209]	< 100
CCOc1cc(-c2c(F)cc(Cl)cc2C(=O)N2CC(F)(F)C2)cc(NC(=O)c2cc(CNC[C@@H]3CCCO3)cn(C3CC3)c2=O)n1 [Example 210]	< 100
CC(C)CNCc1cc(C(=O)Nc2cc(-c3ccc(C#N)cc3C(=O)N3CC(F)(F)C3)cc(OC(C)C)n2)c(=O)n(C)c1 [Example 211]	< 100
CCOc1cc(-c2ccc(C#N)cc2C(=O)N2CC(F)(F)C2)cc(NC(=O)c2cc(CNC[C@@H]3CCCO3)cn(C3CC3)c2=O)n1 [Example 212]	< 100
CCOc1cc(-c2c(F)cc(Cl)cc2C(=O)N2CC(F)(F)C2)cc(NC(=O)c2cc(CNCC(C)C)cn(C3CC3)c2=O)n1 [Example 213]	< 100
CC(C)Oc1cc(-c2ccc(C#N)cc2C(=O)N2CC(F)(F)C2)cc(NC(=O)c2cc(CN[C@@H](C)C(C)C)cn(C)c2=O)n1 [Example 214]	< 100
CO[C@@H](C)CNCc1cc(C(=O)Nc2cc(-c3cc(F)c(Cl)cc3C(=O)N3CC(F)(F)C3)cc(C3CC3)n2)c(=O)n(C2CC2)c1 [Example 215]	< 100
C[C@H](NCc1cc(C(=O)Nc2cc(-c3cc(F)c(Cl)cc3C(=O)N3CC(F)(F)C3)cc(C3CC3)n2)c(=O)n(C2CC2)c1)C1CCC1 [Example 216]	< 100
CO[C@@H](C)CNCc1cc(C(=O)Nc2cc(-c3ccc(Cl)cc3C(=O)N3CC(F)(F)C3)cc(NC(C)C)n2)c(=O)n(C2CC2)c1 [Example 217]	< 100

Structure (SMILES)	IC50 [nM]
C[C@H](NCc1cc(C(=O)Nc2cc(-c3c(F)cc(C#N)cc3C(=O)N3CC(F)(F)C3)cc(C3CC3)n2)c(=O)n(C2CC2)c1)C1CCC1 [Example 218]	< 100
CC(C)Nc1cc(-c2ccc(Cl)cc2C(=O)N2CC(F)(F)C2)cc(NC(=O)c2cc(CN[C@@H](C)C3CC3)cn(C3CC3)c2=O)n1 [Example 219]	< 100
CC(C)Nc1cc(-c2ccc(Cl)cc2C(=O)N2CC(F)(F)C2)cc(NC(=O)c2cc(CN[C@@H](C)C3CCC3)cn(C3CC3)c2=O)n1 [Example 221]	< 100
CO[C@@H](C)[C@H](C)NCc1cc(C(=O)Nc2cc(-c3c(F)cc(C#N)cc3C(=O)N3CC(F)(F)C3)cc(OC(C)C)n2)c(=O)n(C2CC2)c1 [Example 222]	< 100
CC(C)Nc1cc(-c2ccc(Cl)cc2C(=O)N2CC(F)(F)C2)cc(NC(=O)c2cc(CNC[C@@H]3CCCO3)cn(C3CC3)c2=O)n1 [Example 223]	< 100
CO[C@@H](C)CNCc1cc(C(=O)Nc2cc(-c3c(F)cc(C#N)cc3C(=O)N3CC(F)(F)C3)cc(C3CC3)n2)c(=O)n(C2CC2)c1 [Example 224]	< 100
CCOc1cc(-c2ccc(Cl)cc2C(=O)N2CC(F)(F)C2)cc(NC(=O)c2cc(CNC[C@@H]3CCCO3)cn(C3CC3)c2=O)n1 [Example 225]	< 100
CO[C@@H](C)[C@H](C)NCc1cc(C(=O)Nc2cc(-c3c(F)cc(C#N)cc3C(=O)N3CC(F)(F)C3)cc(OC(C)C)n2)c(=O)n(C)c1 [Example 226]	< 100
CC(C)Oc1cc(-c2c(F)cc(C#N)cc2C(=O)N2CC(F)(F)C2)cc(NC(=O)c2cc(CN[C@@H](C)C3CCC3)cn(C)c2=O)n1 [Example 227]	< 100
CO[C@@H](C)CNCc1cc(C(=O)Nc2cc(-c3c(F)cc(C#N)cc3C(=O)N3CC(F)(F)C3)cc(C3CC3)n2)c(=O)n(C)c1 [Example 228]	< 100
CO[C@@H](C)[C@H](C)NCc1cc(C(=O)Nc2cc(-c3c(F)cc(C#N)cc3C(=O)N3CC(F)(F)C3)cc(C3CC3)n2)c(=O)n(C)c1 [Example 229]	< 100
CC(C)CNCc1cc(C(=O)Nc2cc(-c3c(F)cc(C#N)cc3C(=O)N3CC(F)(F)C3)cc(C3CC3)n2)c(=O)n(C2CC2)c1 [Example 230]	< 100
N#Cc1cc(F)c(-c2cc(NC(=O)c3cc(CNC[C@@H]4CCCO4)cn(C4CC4)c3=O)nc(C3CC3)c2)c(C(=O)N2CC(F)(F)C2)c1 [Example 231]	< 100
C[C@H](NCc1cc(C(=O)Nc2cc(-c3c(F)cc(C#N)cc3C(=O)N3CC(F)(F)C3)cc(C3CC3)n2)c(=O)n(C2CC2)c1)C1CC1 [Example 232]	< 100
CC(C)Oc1cc(-c2c(F)cc(C#N)cc2C(=O)N2CC(F)(F)C2)cc(NC(=O)c2cc(CN[C@@H](C)C3CC3)cn(C)c2=O)n1 [Example 233]	< 100
CC(C)CNCc1cc(C(=O)Nc2cc(-c3c(F)cc(C#N)cc3C(=O)N3CC(F)(F)C3)cc(OC(C)C)n2)c(=O)n(C)c1 [Example 234]	< 100
CO[C@@H](C)CNCc1cc(C(=O)Nc2cc(-c3c(F)cc(C#N)cc3C(=O)N3CC(F)(F)C3)cc(OC(C)C)n2)c(=O)n(C)c1 [Example 235]	< 100
C[C@H](NCc1cc(C(=O)Nc2cc(-c3c(F)cc(C#N)cc3C(=O)N3CC(F)(F)C3)cc(C3CC3)n2)c(=O)n(C)c1)C1CC1 [Example 236]	< 100
COCCNCc1cc(C(=O)Nc2cc(-c3c(F)cc(C#N)cc3C(=O)N3CC(F)(F)C3)cc(C3CC3)n2)c(=O)n(C2CC2)c1 [Example 237]	< 100

Structure (SMILES)	IC50 [nM]
CCOc1cc(-c2ccc(Cl)cc2C(=O)N2CC(F)(F)C2)cc(NC(=O)c2cc(CN[C@@H](C)COC)cn(C3CC3)c2=O)n1 [Example 238]	< 100
CC(C)Oc1cc(-c2c(F)cc(C#N)cc2C(=O)N2CC(F)(F)C2)cc(NC(=O)c2cc(CNC[C@@H]3CCCO3)cn(C)c2=O)n1 [Example 239]	< 100
CCOc1cc(-c2ccc(Cl)cc2C(=O)N2CC(F)(F)C2)cc(NC(=O)c2cc(CNCC3CC3)cn(C3CC3)c2=O)n1 [Example 240]	< 100
Cn1cc(CNC[C@@H]2CCCO2)cc(C(=O)Nc2cc(-c3c(F)cc(C#N)cc3C(=O)N3CC(F)(F)C3)cc(C3CC3)n2)c1=O [Example 241]	< 100
CC(C)Oc1cc(-c2ccc(C#N)cc2C(=O)N2CC(F)(F)C2)cc(NC(=O)c2cc(CN[C@@H](C)C(C)(C)F)cn(C3CC3)c2=O)n1 [Example 242]	< 100
C[C@@H](CC(F)(F)F)NCc1cc(C(=O)Nc2cc(-c3ccc(C#N)cc3C(=O)N3CC(F)(F)C3)cc(C3CC3)n2)c(=O)n(C2CC2)c1 [Example 243]	< 100
CC(C)(F)CNCc1cc(C(=O)Nc2cc(-c3ccc(C#N)cc3C(=O)N3CC(F)(F)C3)cc(C3CC3)n2)c(=O)n(C2CC2)c1 [Example 244]	< 100
CCNc1cc(-c2ccc(Cl)cc2C(=O)N2CC(F)C2)cc(NC(=O)c2cc(CNC[C@H](C)OC)cn(C3CC3)c2=O)n1 [Example 245]	< 100
CC(C)Oc1cc(-c2ccc(C#N)cc2C(=O)N2CC(F)C2)cc(NC(=O)c2cc(CN[C@@H](C)C3CCC3)cn(C)c2=O)n1 [Example 246]	< 100
CCOc1cc(-c2ccc(OC(F)F)cc2C(=O)N2CC(F)C2)cc(NC(=O)c2cc(CN[C@@H](C)C3CCC3)cn(C3CC3)c2=O)n1 [Example 247]	< 100
CO[C@@H](C)CNCc1cc(C(=O)Nc2cc(-c3ccc(Cl)cc3C(=O)N3CC(F)C3)cc(C3CC3)n2)c(=O)n(C2CC2)c1 [Example 248]	< 100
CC(C)Oc1cc(-c2ccc(OC(F)F)cc2C(=O)N2CC(F)C2)cc(NC(=O)c2cc(CN[C@@H](C)C3CCC3)cn(C3CC3)c2=O)n1 [Example 249]	< 100
CC(C)Oc1cc(-c2ccc(OC(F)F)cc2C(=O)N2CC(F)C2)cc(NC(=O)c2cc(CN[C@@H](C)C3CCC3)cn(C)c2=O)n1 [Example 250]	< 100
CC(C)CNCc1cc(C(=O)Nc2cc(-c3ccc(Cl)cc3C(=O)N3CC(F)C3)cc(OC(C)C)n2)c(=O)n(C2CC2)c1 [Example 251]	< 100
CO[C@@H](C)CNCc1cc(C(=O)Nc2cc(-c3ccc(OC(F)F)cc3C(=O)N3CC(F)C3)cc(OC(C)C)n2)c(=O)n(C2CC2)c1 [Example 252]	< 100
CO[C@@H](C)CNCc1cc(C(=O)Nc2cc(-c3ccc(Cl)cc3C(=O)N3CC(F)C3)cc(OC(C)C)n2)c(=O)n(C2CC2)c1 [Example 253]	< 100
COc1ccc(-c2cc(NC(=O)c3cc(CN[C@@H](C)C4CCC4)cn(C4CC4)c3=O)nc(OC(C)C)c2)c(C(=O)N2CC(F)C2)c1 [Example 254]	< 100
CCOc1cc(-c2ccc(Cl)cc2C(=O)N2CC(F)C2)cc(NC(=O)c2cc(CNC[C@H](C)OC)cn(C3CC3)c2=O)n1 [Example 255]	< 100
